# Reference: patent US20210213104A1, “GLUCAGON AND GLP-1 CO-AGONISTS FOR THE TREATMENT OF CHRONIC KIDNEY DISEASE AND DIABETIC KIDNEY DISEASE IN TYPE 2 DIABETES” (MEDIMMUNE LIMITED, priority 2020, published 2021)
# Test system: subjects with T2DM and renal impairment
# Assay: Phase 2a: continuous glucose monitoring (CGM)
# Type: in vivo, human
# Conditions: ITT; for Average CGM Glucose Over 7-Day Periods, Difference in LS Mean Change (vs Placebo) / Average CGM Glucose Over 7-Day Periods, LS Mean Change / Percentage of time CGM Glucose in Clinically Significant Hypoglycemia (<54 mg/dL), Difference in LS Mean Change (vs Placebo) / Percentage of time CGM Glucose in Clinically Significant Hypoglycemia (<54 mg/dL), LS Mean Change / Percentage of time CGM Glucose in Hyperglycemia (>180 mg/dL), Difference in LS Mean Change (vs Placebo) / Percentage of time CGM Glucose in Hyperglycemia (>180 mg/dL), LS Mean Change / Percentage of time CGM Glucose in Hypoglycemia (<70 mg/dl), Difference in LS Mean Change (vs Placebo) / Percentage of time CGM Glucose in Hypoglycemia (<70 mg/dl), LS Mean Change / Average CGM Glucose Over 7-Day Periods, Change from Baseline to End of Dosing Period, Mean / Average CGM Glucose Over 7-Day Periods, Change from Baseline to End of Dosing Period, Median / Percentage of time CGM Glucose in Hyperglycemia (>180 mg/dL), Change from Baseline to End of Dosing Period, Mean / Percentage of time CGM Glucose in Hyperglycemia (>180 mg/dL), Change from Baseline to End of Dosing Period, Median: baseline Days −8 to −2; for Average CGM Glucose Over 7-Day Periods, Difference in LS Mean Change (vs Placebo) / Average CGM Glucose Over 7-Day Periods, LS Mean Change / Percentage of time CGM Glucose in Clinically Significant Hypoglycemia (<54 mg/dL), Difference in LS Mean Change (vs Placebo) / Percentage of time CGM Glucose in Clinically Significant Hypoglycemia (<54 mg/dL), LS Mean Change / Percentage of time CGM Glucose in Hyperglycemia (>180 mg/dL), Difference in LS Mean Change (vs Placebo) / Percentage of time CGM Glucose in Hyperglycemia (>180 mg/dL), LS Mean Change / Percentage of time CGM Glucose in Hypoglycemia (<70 mg/dl), Difference in LS Mean Change (vs Placebo) / Percentage of time CGM Glucose in Hypoglycemia (<70 mg/dl), LS Mean Change / Time in target range, LS Mean Change: ANCOVA; for Time in target range, LS Mean Change: 300 μg Dose (Days 26 to 32)
# Description: Cotadutide was titrated from 50 μg up to 300 μg and administered once daily by subcutaneous (SC) injection over 32 days.
# Cotadutide was administered at 50 μg once daily for 4 days, followed by 100 μg daily for 7 days, 200 μg daily for 7 days, and 300 μg daily for 14 days (n=20). Placebo was administered one daily for 32 days (n=20). Cotadutide and placebo were administered in the morning. Dosing commenced following predose baseline vital signs, blood tests (including HbA1c), an electrocardiogram (ECG), body weight measurement, and bioimpedance spectroscopy (BIS). Subjects then returned for daily dosing or remained overnight locally until Day 5, and thereafter, had visits at weekly intervals until a maintenance dose of 300 μg was established. Thus, Cotadutide or placebo was administered at the study site by study personal for the first four doses and on site on Days 5, 12, 19, and 32. At all other times, subjects preformed dosing at home.
# A Freestyle Libre® Pro CGM device was used to measure interstitial glucose levels. […] Data generated by CGM was used at visits to adjust insulin doses and other treatments.
# The CGM sensor, which is a small plastic circular device of 35 mm diameter and 5 mm depth, was applied to the back of the upper arm. Subjects wore the CGM sensor continuously up until the time of a sensor change, which was to occur within 14 days, and they were advised that they could bathe and shower, and swim in up to 3 m depth for up to 30 minutes while wearing the CGM sensor. When the CGM sensor was removed, a new CGM sensor could be reapplied, ideally close to the original site, but with the subject's site preference taken into account. CGM sensors were single-use only.
# If a subject was unable to tolerate wearing the CGM sensor for the entire duration of the study, the sensor was removed; but the subject was to remain in the study with or without continued CGM and could instead be instructed to monitor capillary plasma glucose measurements four times per day (before meals and before bedtime) and record these levels in the diary provided.
# Subjects underwent continuous glucose monitoring (CGM) starting from Day −14 to Day 40 (±5 days), with sensor changes within 14-day intervals. CGM readings were used to analyze change in average CGM glucose and glucose AUC7 d, coefficient of variation as a marker of glycemic variability, and time spent in target glucose range and hypoglycemia, to enable comparison across different dose levels.
structure (smiles),measurement,setting,value
CCCCCCCCCCCCCCCC(=O)N[C@@H](CCC(=O)NCCCC[C@H](NC(=O)[C@H](CC(=O)O)NC(=O)[C@H](CO)NC(=O)[C@@H](NC(=O)[C@H](Cc1ccccc1)NC(=O)[C@@H](NC(=O)CNC(=O)[C@H](CCC(N)=O)NC(=O)[C@H](CO)NC(=O)[C@@H](N)Cc1c[nH]cn1)[C@@H](C)O)[C@@H](C)O)C(=O)N[C@@H](CO)C(=O)N[C@@H](CCC(=O)O)C(=O)N[C@@H](Cc1ccc(O)cc1)C(=O)N[C@@H](CC(C)C)C(=O)N[C@@H](CC(=O)O)C(=O)N[C@@H](CO)C(=O)N[C@@H](CCC(=O)O)C(=O)N[C@@H](CCCNC(=N)N)C(=O)N[C@@H](C)C(=O)N[C@@H](CCCNC(=N)N)C(=O)N[C@@H](CC(=O)O)C(=O)N[C@@H](Cc1ccccc1)C(=O)N[C@H](C(=O)N[C@@H](C)C(=O)N[C@@H](Cc1c[nH]c2ccccc12)C(=O)N[C@@H](CC(C)C)C(=O)N[C@@H](CCC(=O)O)C(=O)N[C@@H](C)C(=O)NCC(=O)NCC(=O)O)C(C)C)C(=O)O [Cotadutide],"Average CGM Glucose Over 7-Day Periods, End of Dosing Period, Mean",300 μg (Days 19 to 25),124.894 mg/dL
same,"Average CGM Glucose Over 7-Day Periods, End of Dosing Period, Median",300 μg (Days 19 to 25),123.277 mg/dL
same,"Percentage of time CGM Glucose in Hyperglycemia (>180 mg/dL), End of Dosing Period, Mean",300 μg (Days 19 to 25),10.65%
same,"Percentage of time CGM Glucose in Hyperglycemia (>180 mg/dL), End of Dosing Period, Median",300 μg (Days 19 to 25),5.81%
same,"Average CGM Glucose Over 7-Day Periods, Difference in LS Mean Change (vs Placebo)",300 μg (Days 19 to 25),-48.97 mg/dL
same,"Average CGM Glucose Over 7-Day Periods, LS Mean Change",300 μg (Days 19 to 25),-38.75 mg/dL
same,"Percentage of time CGM Glucose in Clinically Significant Hypoglycemia (<54 mg/dL), Difference in LS Mean Change (vs Placebo)",300 μg (Days 19 to 25),4.57%
same,"Percentage of time CGM Glucose in Clinically Significant Hypoglycemia (<54 mg/dL), LS Mean Change",300 μg (Days 19 to 25),3.58%
same,"Percentage of time CGM Glucose in Hyperglycemia (>180 mg/dL), Difference in LS Mean Change (vs Placebo)",300 μg (Days 19 to 25),−23.47%
same,"Percentage of time CGM Glucose in Hyperglycemia (>180 mg/dL), LS Mean Change",300 μg (Days 19 to 25),−23.47%
same,"Percentage of time CGM Glucose in Hypoglycemia (<70 mg/dl), Difference in LS Mean Change (vs Placebo)",300 μg (Days 19 to 25),4.25%
same,"Percentage of time CGM Glucose in Hypoglycemia (<70 mg/dl), LS Mean Change",300 μg (Days 19 to 25),3.39%
same,"Average CGM Glucose Over 7-Day Periods, Change from Baseline to End of Dosing Period, Mean",300 μg (Days 19 to 25),-38.623 mg/dL
same,"Average CGM Glucose Over 7-Day Periods, Change from Baseline to End of Dosing Period, Median",300 μg (Days 19 to 25),-35.498 mg/dL
same,"Percentage of time CGM Glucose in Hyperglycemia (>180 mg/dL), Change from Baseline to End of Dosing Period, Mean",300 μg (Days 19 to 25),−23.50%
same,"Percentage of time CGM Glucose in Hyperglycemia (>180 mg/dL), Change from Baseline to End of Dosing Period, Median",300 μg (Days 19 to 25),−19.64%
same,"Average CGM Glucose Over 7-Day Periods, End of Dosing Period, Mean",300 μg (Days 26 to 32),125.382 mg/dL
same,"Average CGM Glucose Over 7-Day Periods, End of Dosing Period, Median",300 μg (Days 26 to 32),121.594 mg/dL
same,"Percentage of time CGM Glucose in Hyperglycemia (>180 mg/dL), End of Dosing Period, Mean",300 μg (Days 26 to 32),10.00%
same,"Percentage of time CGM Glucose in Hyperglycemia (>180 mg/dL), End of Dosing Period, Median",300 μg (Days 26 to 32),4.38%
same,"Average CGM Glucose Over 7-Day Periods, Difference in LS Mean Change (vs Placebo)",300 μg (Days 26 to 32),-47.89 mg/dL
same,"Average CGM Glucose Over 7-Day Periods, LS Mean Change",300 μg (Days 26 to 32),-41.37 mg/dL
same,"Percentage of time CGM Glucose in Clinically Significant Hypoglycemia (<54 mg/dL), Difference in LS Mean Change (vs Placebo)",300 μg (Days 26 to 32),1.58%
same,"Percentage of time CGM Glucose in Clinically Significant Hypoglycemia (<54 mg/dL), LS Mean Change",300 μg (Days 26 to 32),0.13%
same,"Percentage of time CGM Glucose in Hyperglycemia (>180 mg/dL), Difference in LS Mean Change (vs Placebo)",300 μg (Days 26 to 32),−18.94%
same,"Percentage of time CGM Glucose in Hyperglycemia (>180 mg/dL), LS Mean Change",300 μg (Days 26 to 32),−25.15%
same,"Percentage of time CGM Glucose in Hypoglycemia (<70 mg/dl), Difference in LS Mean Change (vs Placebo)",300 μg (Days 26 to 32),4.91%
same,"Percentage of time CGM Glucose in Hypoglycemia (<70 mg/dl), LS Mean Change",300 μg (Days 26 to 32),3.09%
same,"Average CGM Glucose Over 7-Day Periods, Change from Baseline to End of Dosing Period, Mean",300 μg (Days 26 to 32),-41.401 mg/dL
same,"Average CGM Glucose Over 7-Day Periods, Change from Baseline to End of Dosing Period, Median",300 μg (Days 26 to 32),-51.123 mg/dL
same,"Percentage of time CGM Glucose in Hyperglycemia (>180 mg/dL), Change from Baseline to End of Dosing Period, Mean",300 μg (Days 26 to 32),−25.49%
same,"Percentage of time CGM Glucose in Hyperglycemia (>180 mg/dL), Change from Baseline to End of Dosing Period, Median",300 μg (Days 26 to 32),−23.12%
same,"Time in target range, LS Mean Change",Insulin Dose < 20 U/day,17.13%
same,"Time in target range, LS Mean Change",Insulin Dose ≥ 20 U/day,10.40%
same,"Time in target range, LS Mean Change",Total,14.79%
